Consider two compounds from patent publication US20100056507A1, “PHENYL DERIVATIVES AND THEIR USE AS A MEDICAMENT” (IPSEN PHARMA S.A.S., priority 2006, published 2010).

The target in the assay is T1, human CB2 receptors (Homo sapiens, UniProt P34972).
T1 construct: expressed in transfected cells; membranes used
Kind of assay: Affinity for the human CB2 cannabinoid receptors: inhibition of [3H]-CP55940 binding to transfected CHO-K1 cell membranes. As to conditions: [3H]-CP55940 1 nM, CHO-K1 membranes expressing human CB2, Cheng-Prusoff correction. As for the experimental part: The affinity of the compounds of the invention for the human CB2 receptors is determined by measuring the inhibition of the binding of [^3H]-CP55940 to transfected CHO-K1 cell membrane preparations.
The cells are collected with 0.5 mM of EDTA and centrifuged at 500 g for 5 minutes at 4° C. The pellet is re-suspended in phosphate buffered saline medium (PBS) and centrifuged at 500 g for 5 minutes at 4° C. The pellet is re-suspended in a Tris 50 mM buffer medium at pH 7.4 and centrifuged at 500 g for 5 minutes at 4° C. The cells are lysed by sonication and centrifuged at 39,000 g for 10 minutes at 4° C. The pellet is re-suspended in the Tris 50 mM buffer medium at pH 7.4 and centrifuged at 50,000 g for 10 minutes at 4° C. The membranes obtained in this last pellet are stored at −80° C.
Measurement of the competitive inhibition of the binding of the [^3H]-CP55940 to the CB2 receptors is carried out in duplicate using 96-well polypropylene plates. The cell membranes (10 μg of proteins/well) are incubated with the [^3H]-CP55940 (1 nM) for 60 minutes at 25° C. in a Tris-HCl 50 mM buffer medium, pH 7.4, comprising 0.1% bovine serum albumin (BSA), 5 mM of MgCl2, and 50 μg/ml of bacitracin.
The filters are washed with Tris-HCl 50 mM buffer, pH 7.4 at 0-4° C. and the radioactivity present is determined using a counter (Packard Top Count).
The specific binding is obtained by subtracting the non-specific binding (determined in the presence of 0.1 μM of WIN55212-2 from the total binding). The data are analyzed by computer-assisted non-linear regression (MDL). For each test, a Cheng-Prusoff correction is made in order to convert the IC50 to the inhibition constant, Ki.
where [L] is the concentration of the radioligand used in the test and Kd is the radioligand equilibrium disassociation constant.

SMILES strings stand for the structures. Read-outs that look alike come from different tables or passages of the source. Some results are limits rather than exact numbers.

T1 sequence (P34972 whole entry): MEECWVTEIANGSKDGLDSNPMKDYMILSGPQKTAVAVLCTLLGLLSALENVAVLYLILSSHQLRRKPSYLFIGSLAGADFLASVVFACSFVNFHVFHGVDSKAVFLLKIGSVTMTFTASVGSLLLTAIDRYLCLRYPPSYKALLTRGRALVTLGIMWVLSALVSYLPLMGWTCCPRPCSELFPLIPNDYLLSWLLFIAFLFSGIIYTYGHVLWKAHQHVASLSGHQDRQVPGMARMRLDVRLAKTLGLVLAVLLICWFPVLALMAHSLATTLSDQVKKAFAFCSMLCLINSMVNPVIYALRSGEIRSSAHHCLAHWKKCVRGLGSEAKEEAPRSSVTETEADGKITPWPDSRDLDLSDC

As usually defined, the Ki is a measure of affinity in units of concentration, obtained from inhibition or displacement. Turning to `CC1(C)CCC(C)(C)c2cc(C(=O)OCCc3ccc(NC(=O)NC4CCC4)cc3)ccc21` [Example 97], the Ki (read-out: Ki < 0.5 μM) was below 500 nM and the Ki (read-out: Ki < 5 μM) was below 5000 nM.

For the compound `CC1(C)CCC(C)(C)c2cc(-c3nc(CCc4ccc(NC(=O)C5CCC5)cc4)no3)ccc21` [Example 98], the Ki by setting is: (read-out: Ki < 0.5 μM) below 500 nM; (read-out: Ki < 5 μM) below 5000 nM.
